From patent publication USRE38132E1, “Phenylpyrrolidines, phenylimidazolidines,3-phenyl-1,3-oxizolidines and 3-phenyl-1,3-thiazolidines and their use in the treatment of inflammatory disease” (Boehringer Ingelheim Pharmaceuticals, Inc., priority 1997, dated 2003)
Where two headings read alike, the source gives them in different places.

Assays:
[1] = tested on: cell bound fibronectin receptor (VLA4) with fibronectin, SKW3 cells; assay: Inhibition of SKW3 cell binding to fibronectin (selectivity counter-assay); format: cell-based, human; conditions: for IC50: Homo sapiens, read-out: Assay to Detect SKW3 Cells Binding to FIBRONECTIN IC50
Source text: (§1) Assay to Determine Inhibition of SKW3 cell binding to ICAM-1 vs. Binding to Fibronectin
(§2) This assay is used to test the selective ability of a test compound to antagonize the interaction of a cell bound form of LFA-1 with ICAM-1. The assay uses a human T cell line, SKW3 cells which express CD18, CD11a and other integrins not related to CD18, CD11a and which can be “activated” by phorbol esters. Phorbol esters enhance the affinity of CD18, CD11a for ICAM-1.
(§3) This same lymphocyte line, SKW3, also adheres to fibronectin in the presence of phorbol esters. This adhesion is mediated by membrane proteins independent of the LFA-1/ICAM-1 interaction. The SKW3 cells express another integrin, VLA4, which is the receptor for fibronectin. Therefore, as a preliminary indication of the selectivity of a test compounds to interfere with Leukointegrin/CAM interactions but not other integrin-ligand binding events, a compound can be tested for its ability to antagonize cell bound fibronectin receptor in its interaction with purified fibronectin. Compounds that inhibit this fibronectin adhesion are not specific antagonists of the CD18, CD11a/ICAM-1 binding.
(§4) Description of Assay Protocol:
(§5) Ninety-six well plates are coated with either sICAM-1(40 μg/mL) or fibronectin (100 μg/mL) in Diluting buffer for 1 h at room temperature. Added to the wells are 100 μL of the appropriately diluted test compound or 100 μL of RPMI with 15% fetal bovine serum as a control. SKW3 cells, which express CD18, CD11a and VLA4 (Dustin, M.; et al., J. Exp. Med. 1987, 165, 672-692) are washed and suspended to a concentration of 10^6 cells/mL in RPMI with 15% fetal bovine serum. Immediately before adding the cells to the wells, cells are stimulated with the phorbol ester 12-myristate 13-acetate (PMA) for a final concentration of […]. 100 μL of cells are then added to the wells resulting in a final concentration of […]. The plates are incubated for 2 h at 37° C. Unbound or loosely bound cells are gently washed away with RPMI.
(§6) Data are reported as the concentration or concentration range (in μM) at which 50% of binding is inhibited.

[2] = tested on: cell bound form of LFA-1 (CD18, CD11a) with ICAM-1, SKW3 cells; assay: Inhibition of SKW3 cell binding to ICAM-1 (PMA-stimulated); format: cell-based, human; conditions: Homo sapiens, read-out: Assay to Detect SKW3 Cells Binding to ICAM IC50
Source text: as §1, §2, §3, §4, §5, §6

[3] = tested on: LFA-1 dependent aggregation of JY cells; assay: JY cell homotypic aggregation assay (PMA-stimulated); format: cell-based, human; conditions: Homo sapiens
Source text: This aggregation can be enhanced by the addition of phorbol esters. […] Thus, the extent of LFA-1-dependent binding may be determined by assessing the extent of spontaneous or phorbol ester-dependent aggregate formation.
An agent which interferes with LFA-1 -dependent aggregation can be identified through the use of an assay capable of determining whether the agent interferes with either spontaneous, or phorbol ester-dependent aggregation of Epstein-Barr virus transformed cells. It is preferable to employ cells of the JY cell line (Terhost, L; et aL, Proc. Natl. Acad. Sci. USA, 1976, 73, 910) for the homotypic aggregation assay. This assay, capable of measuring LFA-1 dependent aggregation, may be employed to identify agents which act as antagonists to the LFA-1 dependent aggregation. Such agents may act by impairing the ability of either LFA-1 or ICAM-1 to mediate aggregation. Thus, agents may be examined to directly determine if they are antagonists of LFA-1 aggregation.
as §4
JY cells are cultured in RPMI 1640 culture medium supplemented with 10% fetal calf serum and 50 μg/mL gentamycin. The cells are cultured at 37° C. in an atmosphere of 5% CO2 at a relative humidity of 95%. JY cells used in this assay are washed two times with RPMI 1640 medium containing 5 mM HEPES buffer and resuspended to a concentration of 2·10^6 cells/mL. Added to flat-bottomed, 96-well microtiter plates are 50 μL of test compound diluted in complete medium, 50 μL of complete medium with or without purified monoclonal antibodies (negative and positive controls for inhibition, respectively), 50 μL of complete medium containing 200 ng/mL of the phorbol ester phorbol myristate acetate (PMA) and 100 μL of cells at a concentration of 2·10^6 cells/mL in complete medium. This yields a final concentration of […] PMA and 2·10^5 cells/well. Cells are allowed to settle spontaneously, and the degree of aggregation is scored at various time points. […] This procedure has been described by Rothlein, R. R.; et al., J. Exp. Med. 1986, 163, 1132-1149. This paper also reported that antibody to LFA-1 is capable of inhibiting the formation of aggregates.
as §6

[4] = target: T1, interaction of ICAM-1 with the Leukointegrin CD18/CD11a (LFA-1) (Homo sapiens, UniProt P05107+P20701); assay: Assay to determine inhibition of LFA-1 binding to ICAM-1 (immunopurified LFA-1 on plate-bound sICAM-1, ELISA readout)
T1 construct: endogenous in cells; sICAM-1: made in house, secreted from transfected CHO DUX cells
Source text: Assay to Determine Inhibition of LFA-1 Binding to ICAM-1 Purpose of Assay: This assay protocol is designed to study the direct antagonism, by a test compound, of the interaction of the CAM, ICAM-1 with the Leukointegrin CD18/CD11a (LFA-1). […] After collection and neutralization of fractions from the TS2/4 column, samples are pooled and precleared with Protein G agarose. […] Wells are washed 3 times with Diluting Buffer. The bound LFA-1 is detected by the addition of a polyclonal antibody directed against a peptide corresponding to the CD18 cytoplasmic tail in a 1:100 dilution with Diluting Buffer and 1% BSA and allowed to incubate for 45 min at 37° C. Wells are washed 3 times with Diluting Buffer and the bound polyclonal antibody is detected by the addition of a 1:4000 dilution of horse radish peroxidase conjugated to goat immunoglobulin directed against rabbit immunoglobulin. […] The lack of the addition of LFA-1 to the binding assay is used as a background control for all samples. A dose-response curve is obtained for all test compounds. Results of these tests are reported as Kd's in μM.

[5] = values marked c: no inhibition observed up to highest dose
[6] = SKW3, values marked c: no inhibition observed up to highest dose
[7] = values marked e approximated from incomplete dose-response curve
[8] = No inh = no inhibition observed up to highest dose, exact quantification not always possible due to intrinsic toxicity

T1 sequence (P20701 26-1170): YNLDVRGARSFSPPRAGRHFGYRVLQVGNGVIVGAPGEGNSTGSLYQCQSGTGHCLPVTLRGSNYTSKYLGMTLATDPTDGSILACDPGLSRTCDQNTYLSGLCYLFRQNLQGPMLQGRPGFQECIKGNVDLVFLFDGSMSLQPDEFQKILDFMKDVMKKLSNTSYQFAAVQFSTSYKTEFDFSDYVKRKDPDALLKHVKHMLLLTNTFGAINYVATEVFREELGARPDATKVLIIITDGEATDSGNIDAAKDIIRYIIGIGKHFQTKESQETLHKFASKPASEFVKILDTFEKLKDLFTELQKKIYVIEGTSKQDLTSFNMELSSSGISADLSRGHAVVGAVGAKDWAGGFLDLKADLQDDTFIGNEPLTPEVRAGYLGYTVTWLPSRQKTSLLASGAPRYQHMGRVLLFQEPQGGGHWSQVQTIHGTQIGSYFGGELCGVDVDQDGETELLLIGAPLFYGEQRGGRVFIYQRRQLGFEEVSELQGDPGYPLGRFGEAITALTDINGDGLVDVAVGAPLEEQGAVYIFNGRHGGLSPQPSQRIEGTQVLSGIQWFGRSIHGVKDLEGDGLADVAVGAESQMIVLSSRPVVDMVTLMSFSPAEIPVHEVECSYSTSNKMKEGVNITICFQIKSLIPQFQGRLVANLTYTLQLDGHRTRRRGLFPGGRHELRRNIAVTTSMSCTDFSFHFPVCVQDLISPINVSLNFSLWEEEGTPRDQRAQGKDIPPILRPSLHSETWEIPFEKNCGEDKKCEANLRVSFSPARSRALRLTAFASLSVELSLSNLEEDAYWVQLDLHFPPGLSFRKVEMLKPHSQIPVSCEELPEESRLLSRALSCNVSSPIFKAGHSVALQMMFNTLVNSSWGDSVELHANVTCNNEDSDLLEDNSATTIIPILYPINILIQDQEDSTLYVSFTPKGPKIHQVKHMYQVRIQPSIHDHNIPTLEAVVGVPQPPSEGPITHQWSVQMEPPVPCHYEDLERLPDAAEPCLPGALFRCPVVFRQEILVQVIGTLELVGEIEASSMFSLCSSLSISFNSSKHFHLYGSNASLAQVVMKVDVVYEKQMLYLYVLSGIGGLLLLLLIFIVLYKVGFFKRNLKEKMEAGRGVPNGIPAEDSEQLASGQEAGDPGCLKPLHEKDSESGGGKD
T1 sequence (P05107 23-769): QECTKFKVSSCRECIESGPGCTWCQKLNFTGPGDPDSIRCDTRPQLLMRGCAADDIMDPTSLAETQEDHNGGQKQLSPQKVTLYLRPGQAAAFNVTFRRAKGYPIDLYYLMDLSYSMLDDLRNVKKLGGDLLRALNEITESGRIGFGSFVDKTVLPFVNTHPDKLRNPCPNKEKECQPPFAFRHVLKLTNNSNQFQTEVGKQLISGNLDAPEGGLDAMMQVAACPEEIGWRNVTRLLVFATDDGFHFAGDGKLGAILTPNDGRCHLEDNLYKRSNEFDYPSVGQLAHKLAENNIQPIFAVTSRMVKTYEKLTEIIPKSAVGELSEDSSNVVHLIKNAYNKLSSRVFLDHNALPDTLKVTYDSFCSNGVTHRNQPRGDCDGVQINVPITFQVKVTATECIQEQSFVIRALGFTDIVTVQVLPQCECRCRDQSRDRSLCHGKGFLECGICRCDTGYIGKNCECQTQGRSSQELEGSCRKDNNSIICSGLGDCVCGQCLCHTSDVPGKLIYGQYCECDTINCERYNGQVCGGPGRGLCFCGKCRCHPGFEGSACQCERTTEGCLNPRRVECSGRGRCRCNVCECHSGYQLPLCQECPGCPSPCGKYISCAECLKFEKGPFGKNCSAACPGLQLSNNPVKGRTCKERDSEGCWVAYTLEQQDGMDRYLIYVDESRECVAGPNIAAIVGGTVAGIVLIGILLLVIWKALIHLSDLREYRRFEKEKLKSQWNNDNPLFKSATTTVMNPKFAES

Compound	Assay to Detect SKW3 Cells Binding to FIBRONECTIN IC50 [1, 5]	IC50 [2, 6] [µM]	Cellular Toxicity Assay MTT LD50 (SKW3 cells) [µM]	IC50 [3] [µM]	Kd [4, 7] [µM]	IC50 [1, 6] [µM]	Assay to Detect SKW3 Cells Binding to FIBRONECTIN IC50 [1, 8]	IC50 ([2]; SKW3) [µM]	Kd [4] [µM]	IC50 ([1]; SKW3, No inh = no inhibition observed up to highest dose, exact quantification not always possible due to intrinsic toxicity) [µM]
CCCC1(Cc2ccc(Br)cc2)C(=O)N(c2cc(Cl)cc(Cl)c2)C(=O)N1C (stereo not drawn) [Example 173]	No inh^c	4.8	200 to 400	2.2	0.17	–	–	–	–	–
CC(C)N1C(=O)N(c2cc(Cl)cc(Cl)c2)C(=O)C1(C)Cc1ccc(Br)cc1 (stereo not drawn) [Example 141]	–	15	300	0.1	0.22	> 15	–	–	–	–
CN1C(=O)N(c2cc(Cl)cc(Cl)c2)C(=O)[C@@]1(C)Cc1cc(Br)cc(Br)c1 [Example 118]	–	> 100	200 to 400	3.4	0.46	> 100	–	–	–	–
CN1C(=O)N(c2cc(Cl)cc(Cl)c2)C(=O)[C@@]1(C)Cc1ccc(-c2ccccn2)cc1 [Example 187]	No inh^c	0.6	171	0.6	0.29	–	–	–	–	–
CC(=O)OCCN1C(=O)N(c2cc(Cl)cc(Cl)c2)C(=O)[C@@]1(C)Cc1ccc(Br)cc1 [Example 260]	–	–	200 to 400	1.1	–	–	No inh^c	19 to 38	0.07	–
C[C@@]1(Cc2ccc(Br)cc2)C(=O)N(c2cc(Cl)cc(Cl)c2)C(=O)N1CCCP(=O)(O)O [Example 223]	–	–	200 to 400	0.2	–	–	No inh^c	2 to 4	0.15	–
C[C@@]1(Cc2ccc(Br)cc2)C(=O)N(c2cc(Cl)cc(Cl)c2)C(=O)N1C1CCNCC1 [Example 224]	–	–	<25	3.1	–	–	No inh^c	5 to 10	0.28	–
C[C@@]1(Cc2ccc(Br)cc2)C(=O)N(c2cc(Cl)cc(Cl)c2)C(=O)N1C[C@@H](O)c1ccccc1 [Example 133]	No inh^c	5 to 10	>400	0.4	0.15	–	–	–	–	–
CN1C(=O)N(c2cc(Cl)cc(Cl)c2)C(=O)C1(C)Cc1cccc(Br)c1 (stereo not drawn) [Example 149]	–	10	170 to 340	2.9	0.2	> 10	–	–	–	–
C[C@@]1(Cc2ccc(Br)cc2)C(=O)N(c2cc(Cl)cc(Cl)c2)C(=O)N1CCCS(=O)(=O)O [Example 249]	–	–	200 to 400	0.4	–	–	No inh^c	< 1	0.16	–
C[C@@]1(Cc2ccc(Br)cc2)C(=O)N(c2cc(Cl)cc(Cl)c2)C(=O)N1CCCNC(=N)N [Example 262]	–	–	25 to 75	0.4	–	–	No inh^c	1 to 2	0.08	–
COCN1C(=O)N(c2cc(Cl)cc(Cl)c2)C(=O)[C@@]1(C)Cc1ccc(Br)cc1 [Example 131]	No inh^c	3 to 5	>400	1.1	0.2	–	–	–	–	–
COC(=O)c1ccc(CC2(C)C(=O)N(c3cc(Cl)cc(Cl)c3)C(=O)N2C)cc1 (stereo not drawn) [Example 140]	–	1.2	180 to 360	0.2	0.11	> 10	–	–	–	–
CCC1(Cc2ccc(Br)cc2)C(=O)N(c2cc(Cl)cc(Cl)c2)C(=O)N1C (stereo not drawn) [Example 172]	No inh^c	1.8	165	0.7	0.17	–	–	–	–	–
C[C@@]1(Cc2ccc(Br)cc2)C(=O)N(c2cc(Cl)cc(Cl)c2)C(=O)N1C[C@H](O)c1ccccc1 [Example 132]	No inh^c	5	200 to 400	2.4	0.22	–	–	–	–	–
CC(C)(C)N1C(=O)N(c2cc(Cl)cc(Cl)c2)C(=O)C1(C)Cc1ccc(Br)cc1 (stereo not drawn) [Example 177]	No inh^c	7 to 14	155 to 310	3.7	0.25	–	–	–	–	–
Cc1cccc(C)c1CC1(C)C(=O)N(c2cc(Cl)cc(Cl)c2)C(=O)N1C (stereo not drawn) [Example 163]	–	9 to 19	200 to 400	2.4	0.16	> 75	–	–	–	–
C[C@@]1(Cc2ccc(Br)cc2)C(=O)N(c2cc(Cl)cc(Cl)c2)C(=O)N1CCCN [Example 240]	–	–	11 to 23	6.3	–	–	–	1 to 3	0.11	13.4
[2H]C([2H])([2H])N1C(=O)N(c2cc(Cl)cc(Cl)c2)C(=O)[C@@]1(C)Cc1ccc(Br)cc1 [Example 109]	No inh^c	3 to 6	100 to 200	0.4	–	–	–	–	–	–
C[C@@]1(Cc2ccc(Br)cc2)C(=O)N(c2cc(Cl)cc(Cl)c2)C(=O)N1CCCCC[N+](C)(C)C [Example 255]	–	–	100 to 200	0.2	–	–	–	1	0.14	–
C[C@@]1(Cc2ccc(Br)cc2)C(=O)N(c2cc(Cl)cc(Cl)c2)C(=O)N1CCCC[N+](C)(C)C [Example 253]	–	–	100 to 200	0.2	–	–	–	1 to 2	0.05	–
C[C@@]1(Cc2ccc(Br)cc2)C(=O)N(c2cc(Cl)cc(Cl)c2)C(=O)N1C(=O)C1CCCN1 (stereo partly drawn) [Example 234]	–	–	100 to 200	1.6	–	–	No inh^c	5 to 10	–	–
Cc1ccc(C[C@@]2(C)NC(=O)N(c3cc(Cl)cc(Cl)c3)C2=O)cc1 [Example 119]	No inh^c	< 3	>400	0.05	–	–	–	–	–	–
C[C@@]1(Cc2ccc(Br)cc2)C(=O)N(c2cc(Cl)cc(Cl)c2)C(=O)N1CCC[N+](C)(C)C [Example 254]	–	–	100 to 200	0.4	–	–	–	1 to 2	0.08	–
